Measurements reported in US20100210568A1, “T[…] HORMONE FOR […] APPLICATIONS” (priority 2007, published 2010).

Test system: drug-resistant Mycobacterium tuberculosis
Settings: peptide 10 micrograms per ml, seven days

**Q.** For `NC(=O)[C@@H]1CCCN1C(=O)[C@H](Cc1cnc[nH]1)NC(=O)[C@@H]1CCC(=O)N1` [TRH, Pyr-His-Pro-NH2], which “% inhibition” value is on record?
**A.** 0.0%
